Laboratory results published in patent publication US20030022878A1, “TELOMERASE INHIBITOR” (priority 1997, published 2003).
Values joined by “and” are separate entries in the source; they are usually repeats but may differ in a detail not shown here. Identical values can stand only once.

Assays:
telomerase = molecular target: T1, telomerase (Homo sapiens, UniProt O14746); assay: Telomerase inhibiting activity in cell-free system (TRAP method); assay type: biochemical
T1 construct: the resulting extract was centrifuged to obtain the supernatant as a cell extract for activity measurement; endogenous in cells
Protocol: Telomerase inhibiting activity of EGCG, EGC, ECG, and EC (all products of Sigma) was measured according to the Telomeric Repeat Amplification Protocol (TRAP) method described by Kim et al. (Kim, N. W. et al., Science, 266, 2011-2015, 1994) as follows:
Cells were washed with ice-cold PBS (phosphate buffered saline) and suspended again in PBS to count the cells. After centrifuging this cell suspension, the resulting cell mass was suspended in a TRAP assay buffer (10 mM Tris-HCl, pH 7.5, 1 mM MgCl2, 1 mM EDTA, 0.5% CHAPS, 10% glycerine, 5 mM 2-mercaptoethanol, and 0.1 mM 4-(2-aminoethyl)-benzenesulfonyl fluoride hydrochlorine), then the suspension was quick-frozen with liquid nitrogen. After melting, the suspension was allowed to stand in an ice bath for 30 minutes for extraction, then the resulting extract was centrifuged to obtain the supernatant as a cell extract for activity measurement. […]
The PCR products obtained in the abovementioned procedure were resolved by polyacrylamide gel electrophoresis and the resulting DNA bands stained with SYBR Green (Takara Shuzo) were detected by irradiation with a UV transilluminator.
The detected bands were photographed. The intensity of each band was quantitatively analyzed using the NIH Image 1.60 software program. Telomerase activity was expressed as the intensity of a sample band relative to that of the band corresponding to the ITAS fragment (control).
Telomerase activity in reaction solutions of 8 different EGCG concentrations ranging from 0.1 to 20 μM was measured in the same manner as described in Example 1 except that a primer, PS, was used at two different concentrations. […]
Telomerase activity in reaction solutions containing powder sample 1 obtained in Production Example 1, powder sample 2 (a tea catechin extract: THEA-FLAN 90S, a trade name, a product of ITO EN, Ltd), and EGCG at different concentrations in the following ranges was measured in the same manner as described in Example 1. […]

[1] = molecular target: T2, intracellular telomerase activity, colon adenocarcinoma HT29 cells (Homo sapiens, UniProt O14746); assay: Telomerase inhibiting activity in cells (Streptolysin O permeabilization, TRAP); assay type: cell-based; conditions: 15 μM EGCG for 2 hours
T2 construct: endogenous in cells; host or cells: HT29
Protocol: (§1) The telomerase inhibiting activity of EGCG was assayed in monoblastoid leukemia U937 cells (American Type Culture Collection, ATCC) and colon adenocarcinoma HT29 cells.
(§2) An RPMI1640 medium (Nissui) supplemented with 10% fetal bovine serum (FBS) was used for U937 cells, and an RPMI1640 medium supplemented with 5% FBS and 5% fetal calf serum (FCS) was used for HT29 cells.
(§3) The cells were incubated in a 15 μM EGCG solution for 2 hours and washed in PBS. The washed cells were suspended in an RPMI1640 medium (without serum) at a concentration of 2×10^6 cells/ml, then Streptolysin O (Sigma, 5 U/ml), TS primer (10 μM), spermidine (1 mM), and Imipramine (50 μM) were added, and the admixture was incubated at room temperature for 10 minutes. Streptolysin O is a substance which increases the permeability of a substance through the cell membrane, and enables the TS primers and other substances to be incorporated into the cell. […]
(§4) The telomerase products thus obtained were resolved by polyacrylamide gel electrophoresis, after which DNA bands were stained with SYBR Green (Takara Shuzo) and detected by irradiation with a UV transilluminator. The intensity of each band was quantitatively analyzed using the NIH Image 1.60 software program and telomerase activity was expressed as the intensity of a sample band relative to that of the band corresponding to the ITAS fragment (control). […]

[2] = molecular target: T3, intracellular telomerase activity, monoblastoid leukemia U937 cells (Homo sapiens, UniProt O14746); assay: as above; assay type: cell-based; conditions: 15 μM EGCG for 2 hours
T3 construct: endogenous in cells; host or cells: U937
Protocol: as §1, §2, §3, §4

telomerase, HT29 cells = molecular target: T4, telomerase, HT29 cells (Homo sapiens, UniProt O14746); assay: Telomerase activity in extract of EGCG-treated cells (mechanism); assay type: cell-based; conditions: 15 μM EGCG for 2 hours, washed, extracted
T4 construct: endogenous in cells; host or cells: HT29
Protocol: (§5) The cells were treated with 15 μM EGCG for 2 hours and washed with ice-cold PBS. The cell mass obtained by centrifugation was suspended in a TRAP assay buffer and the resulting suspension was quick-frozen with liquid nitrogen. After melting, the suspension was allowed to stand in an ice bath for 30 minutes, then the resulting extract was centrifuged to obtain the supernatant as a cell extract. A test compound, TS primer (50 ng), 50 μM dNTPs, and T4g32 protein (Behringer-Manheim) were added to a specified volume of the cell extract (corresponding to 200 to 1000 cells), and the admixture was incubated at 20° C. for 30 minutes. After reaction, CX primer (100 ng) was added to the reaction solution, then PCR was performed in the presence of Gene Taq DNA polymerase (2 U) and ITAS (10^−18 g), i.e., (94° C., 40 seconds→50° C., 40 seconds→72° C., 60 seconds)×30 cycles→72° C., 2 minutes, to obtain PCR products. The PCR products thus obtained were resolved by polyacrylamide gel electrophoresis and the resulting DNA bands stained with SYBR Green (Takara Shuzo) were detected by irradiation with a UV transilluminator. The intensity of each band was quantitatively analyzed using the NIH Image 1.60 software program. Telomerase activity was expressed as the intensity of a sample band relative to that of the band corresponding to the ITAS fragment. […]

telomerase, U937 cells = molecular target: T5, telomerase, U937 cells (Homo sapiens, UniProt O14746); assay: as above; assay type: cell-based; conditions: 15 μM EGCG for 2 hours, washed, extracted
T5 construct: endogenous in cells; host or cells: U937
Protocol: as §5

HT29 cells [3] = assay: Effect of EGCG on cell growth in subculture; assay type: cell-based; conditions: HT29 subculture lines, medium with 15 μM EGCG
Protocol: (§6) U937 cells and HT29 cells were each subcultured on a medium with and without EGCG to study the effect of addition of EGCG on cell growth. The medium used was the same as used in Example 4. Five subculture lines for U937 cells and nine subculture lines for HT29 cells were prepared. The first culture of each line was made by inoculating cells of each stock culture at a density of 5×10^5 cells per 10-cm dish. For each subculture, two lines were cultured on a medium without EGCG (control lines) and the rest of the lines were cultured on a medium supplemented with 15 μM EGCG. Cells were passaged, sampled and counted every four days. The incubation medium was freshly changed every day. […] PD is the number of cycles in which the cell population doubles during cell growth and is calculated by monitoring cell counts using a hemocytometer.

U937 cells = assay: Effect of EGCG on cell growth in subculture; assay type: cell-based; conditions: U937 subculture lines, medium with 15 μM EGCG
Protocol: as §6

HT29 cells [4] = assay: TRF (telomere) length by Southern blotting; assay type: cell-based; conditions: HT29 cells in crisis, 15 μM EGCG
Protocol: HT 29 cells from PD57 to PD60 in cell crisis were pooled and the genomic DNA was prepared by a salting-out/ethanol precipitation method (Stratagene). Further, integrity of the isolated genomic DNA was confirmed by gel electrophoresis (ethidium bromide staining).
The isolated genomic DNA (10 μg) was digested with HinfI and RsaI and the resulting digests were subjected to Southern blotting by the ordinary method, after which DNA fragments were detected using a TeloQuant assay kit (PharmMingen).
Accordingly, if a genomic DNA is digested with the abovementioned restriction enzymes, only the telomere region would remain undigested. This DNA fragment is called the Terminal Restriction Fragment (TRF) which can be detected by Southern blotting to analyze telomere lengths. TRFs of EGCG-treated or untreated HT29 cells obtained as mentioned above were detected using a TeloQuant assay kit. […] It was observed that TRFs in the cells which entered crisis due to the EGCG treatment (●) were shortened by about 1.1 kb as compared to those in the untreated cells (◯). Further, it was confirmed that successive EGCG treatment of HT29 cells caused telomere diminishment.

[5] = system: experimentally-induced tumors; conditions: nude mice with experimentally-induced tumors; cited from earlier work
malignant melanoma cells = conditions: oral administration; cited from earlier work

T1 sequence (O14746 whole entry): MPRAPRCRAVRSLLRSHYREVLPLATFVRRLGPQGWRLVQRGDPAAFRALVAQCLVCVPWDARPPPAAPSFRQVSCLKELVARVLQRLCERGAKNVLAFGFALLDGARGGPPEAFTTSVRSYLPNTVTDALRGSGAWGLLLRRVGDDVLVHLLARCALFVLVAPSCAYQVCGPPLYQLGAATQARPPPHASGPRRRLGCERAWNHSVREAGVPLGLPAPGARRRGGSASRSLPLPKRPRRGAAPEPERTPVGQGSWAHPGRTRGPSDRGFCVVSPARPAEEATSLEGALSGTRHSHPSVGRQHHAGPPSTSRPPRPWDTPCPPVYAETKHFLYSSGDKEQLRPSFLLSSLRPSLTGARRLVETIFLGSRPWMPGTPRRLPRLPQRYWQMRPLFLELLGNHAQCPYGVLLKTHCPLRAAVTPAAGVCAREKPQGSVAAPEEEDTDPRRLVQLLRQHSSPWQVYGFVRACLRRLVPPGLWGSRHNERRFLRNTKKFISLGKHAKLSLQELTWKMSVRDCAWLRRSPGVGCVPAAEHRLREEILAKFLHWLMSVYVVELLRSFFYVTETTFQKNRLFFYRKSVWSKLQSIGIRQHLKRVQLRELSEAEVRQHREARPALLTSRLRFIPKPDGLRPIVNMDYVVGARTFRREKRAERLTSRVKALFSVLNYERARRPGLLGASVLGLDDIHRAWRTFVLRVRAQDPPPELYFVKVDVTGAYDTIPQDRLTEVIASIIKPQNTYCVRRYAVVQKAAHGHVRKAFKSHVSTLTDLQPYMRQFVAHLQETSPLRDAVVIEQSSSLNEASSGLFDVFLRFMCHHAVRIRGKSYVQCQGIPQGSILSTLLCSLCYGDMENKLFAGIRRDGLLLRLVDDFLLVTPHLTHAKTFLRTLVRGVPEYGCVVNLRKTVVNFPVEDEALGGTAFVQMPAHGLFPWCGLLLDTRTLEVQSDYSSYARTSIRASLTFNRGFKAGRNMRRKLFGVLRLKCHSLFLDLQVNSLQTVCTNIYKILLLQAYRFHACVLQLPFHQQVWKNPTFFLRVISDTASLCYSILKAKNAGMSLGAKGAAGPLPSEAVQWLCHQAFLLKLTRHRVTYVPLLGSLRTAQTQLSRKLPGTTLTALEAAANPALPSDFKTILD
T3 sequence (O14746 whole entry): as above
T2 sequence (O14746 whole entry): as above
T5 sequence (O14746 whole entry): as above
T4 sequence (O14746 whole entry): as above

(−) epigallocatechin gallate [EGCG]
Ki (telomerase; Dixon plot, EGCG 0.1 to 20 μM, primer at two concentrations): ~100 nM | telomerase inhibiting activity compared among catechins (FIG. 1) (telomerase; TRAP, cell extract): highest inhibiting activity | Telomerase inhibition, IC50 (telomerase; concentration suppressing DNA amplification of control by 50%, samples tested in μg/ml ranges): 0.25 | intracellular telomerase activity [1]: markedly inhibited | intracellular telomerase activity [2]: markedly inhibited | telomerase activity tested in vitro in extract after treatment of cells (telomerase, HT29 cells): no effect | telomerase activity tested in vitro in extract after treatment of cells (telomerase, U937 cells): no effect | day at which cells entered cell crisis (HT29 cells [3]): 75 days and 57 days | day at which cells entered cell crisis (U937 cells): 53 days and 44 days and 29 days | shortening of TRFs compared to untreated cells (HT29 cells [4]): about 1.1 kb | cancer cell growth in nude mice [5]: effectively suppressed | metastasis of malignant melanoma cells (malignant melanoma cells): suppressed
